Laboratory results from patent US12466850B2, “Method for producing peptide compound” (priority 2019, dated 2025).

Assays:
[1] = Test Example 2: Evaluation of the solubility in an organic solvent (HPLC); format: physicochemical; conditions: for amount of the compound dissolved in 100 g of organic solvent: per 100 g solvent, 20° C., stirred one hour or longer
Description: In the measurement of the solubility, the compound obtained in Synthesis Example 8 was used.
(§1) A test compound was dissolved in toluene, cyclopentyl methyl ether, or ethyl acetate, and stirred at 20° C. for one hour or longer. The obtained solution was subjected to centrifugal filtration, and then the resultant filtrate was subjected to analysis under the below-shown conditions for measurement, determining an amount of the test compound dissolved.
(§2) • High performance liquid chromatography: HPLC-20A, manufactured by SHIMADZU Corporation • Column: XBridge C18 (2.5 μm, 4.6×100 mm) • Column oven temperature: 40° C. • Eluent: A=0.2 vol % aqueous solution of trifluoroacetic acid • B=0.2 vol % acetonitrile solution of trifluoroacetic acid • AB=50/50 (0 to 2 minutes), 50/50 to 0/100 (2 to 15 minutes), 0/100 (15 to 40 minutes) • Eluent flow rate: 1.0 mL/minute • Wavelength for detection: 210 nm [Results of Test]
The compound in Synthesis Example 8 was improved in the solubility in toluene, cyclopentyl methyl ether, and ethyl acetate, as compared to the compound in Reference Synthesis Example 3.

[2] = Test Example 1: Evaluation of the solubility in an organic solvent (saturated solution, HPLC); format: physicochemical; conditions: for amount of the compound dissolved in 100 g of organic solvent: per 100 g solvent, 20° C., saturated, stirred one hour or longer; for solubility as compared to the compound in Reference Synthesis Example 3: in toluene, cyclopentyl methyl ether, and ethyl acetate
Description: In the measurement of the solubility, the compounds obtained in Synthesis Examples 2 and 6 and Reference Synthesis Example 3 were used.
as §1, with “acetate so as to be saturated,” for “acetate,”
as §2
The compounds in Synthesis Examples 2 and 6 were improved in the solubility in toluene, cyclopentyl methyl ether, and ethyl acetate, as compared to the compound in Reference Synthesis Example 3.

Row | Structure (SMILES) | amount of the compound dissolved in 100 g of organic solvent ([1]; cyclopentyl methyl ether) [g] | amount of the compound dissolved in 100 g of organic solvent ([1]; ethyl acetate) [g] | amount of the compound dissolved in 100 g of organic solvent ([1]; toluene) [g] | amount of the compound dissolved in 100 g of organic solvent ([2]; cyclopentyl methyl ether) [g] | amount of the compound dissolved in 100 g of organic solvent ([2]; ethyl acetate) [g] | amount of the compound dissolved in 100 g of organic solvent ([2]; toluene) [g] | solubility as compared to the compound in Reference Synthesis Example 3 [2] | solubility as compared to the compound in Reference Synthesis Example 3 ([1]; in toluene, cyclopentyl methyl ether, and ethyl acetate)
1 | C[Si](C)(C)CCOC(=O)[C@H](Cc1ccccc1)NC(=O)[C@H](Cc1ccccc1)NC(=O)OCC1c2ccccc2-c2ccccc21 [Reference Synthesis Example 3, Fmoc-Phe-Phe-OTMSE, reference compound] | 1.4 | 4.5 | 0.87 | 1.4 | 4.5 | 0.87 |  | 
2 | CC[Si](CC)(CCCOCC(CCC(C)CC(C)(C)C)C(C)CC(C)(C)C)CCOC(=O)[C@H](Cc1ccccc1)NC(=O)[C@H](Cc1ccccc1)NC(=O)OCC1c2ccccc2-c2ccccc21 (stereo partly drawn) [Synthesis Example 2, Fmoc-Phe-Phe-OFESE] |  |  |  | 111 | 97 | 116 | improved | 
3 | CCCCCCCCCCCCCCCCCC[Si](C)(C)CCOC(=O)[C@H](Cc1ccccc1)NC(=O)[C@H](Cc1ccccc1)NC(=O)OCC1c2ccccc2-c2ccccc21 [Synthesis Example 6, Fmoc-Phe-Phe-ODMSE] |  |  |  | 41 | 8.4 | 38 | improved | 
4 | CC(CCC(COCCC[Si](CCOC(=O)[C@H](Cc1ccccc1)NC(=O)[C@H](Cc1ccccc1)NC(=O)OCC1c2ccccc2-c2ccccc21)(c1ccccc1)c1ccccc1)C(C)CC(C)(C)C)CC(C)(C)C (stereo partly drawn) [Synthesis Example 8, Fmoc-Phe-Phe-OFPSE] | >140 | >140 | >140 |  |  |  |  | improved
